Ten compounds from US8946426B2, “Substituted bicyclic heterocyclic compounds as gamma secretase modulators” (Janssen Pharmaceuticals, Inc., priority 2009, dated 2015) can be followed below.

What all share (format): cell-based
For one experiment, the system named is Aβ42. Nature of the experiment: Method 2: Aβ42 Alphalisa in supernatant of SKNBE2 cells carrying APP 695-wild type (Table 7c). The note with it: Method 2, Alphalisa, overnight incubation. Put shortly: (§1)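 SKNBE2 cells expressing wild-type APP695 incubated overnight at 37° C with test compound, 10^4 cells/well. Supernatant Aβ42 (C-terminal JRF/cAβ42/26 with N-terminal JRF/AβN/25) and Aβtotal (JRF/AβN/25 with 4G8) quantified by AlphaLISA. IC50 from 4-parameter fit of percent of untreated control.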

Experiment [1] concerns Aβtotal. Nature of the experiment: Method 2: Aβtotal Alphalisa in supernatant of SKNBE2 cells carrying APP 695-wild type (Table 7c). Particulars: Method 2, Alphalisa, overnight incubation. In a few lines: as §1
Experiment [2] relates to Aβtotal. Nature of the experiment: Method 1: Aβtotal sandwich ELISA in supernatant of SKNBE2 cells carrying APP 695-wild type (Tables 7a, 7b). Put shortly: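 SKNBE2 cells expressing wild-type APP695 were exposed to compound for 18 Hours in Ultraculture with 1% glutamine. Aβtotal in the supernatant was read by 6E10-capture/biotinylated 4G8 sandwich ELISA with a fluorogenic peroxidase read-out, and WST-1 checked toxicity. IC50 came from a 4-parameter fit of percent inhibition or percent of control versus concentration.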

Setting [3] is: Homo sapiens, SKNBE2, Table 7b, averaged IC50, non-linear regression of percentage of control vs log concentration, 4-parameter equation.
Setting [4] is: Homo sapiens, Table 7a, SKNBE2 cells, compounds 18 h, XLfit 4-parameter fit of percent inhibition, top/bottom fixed to 100/0, hill slope 1.
Setting [5] is: Table 7b, averaged IC50, non-linear regression of percentage of control vs log concentration, 4-parameter equation.

For the compound `Cc1ncoc1-c1ccc(Nc2cccc3c2nc(-c2ccc(F)cc2)n3C)nc1` [Compound 10], the results for the IC50 in the experiment on Aβ42 (Homo sapiens) and in the experiment with Aβtotal [1] (Homo sapiens) were 1.74 µM and above 10 µM, respectively.

For `COc1cc(Nc2cccc3c2nc(CCC(F)(F)F)n3C)ccc1-c1ocnc1C` [Compound 11], the IC50 with Aβ42 (Homo sapiens) was 0.363 µM; in the experiment with Aβtotal [1] (Homo sapiens), above 10 µM.

Consider `COc1cc(Nc2cccc3c2nc(-c2ccc(F)cc2)n3C)ccc1-c1ocnc1C` [Compound 12], for which the IC50 in the experiment with Aβtotal [2] (setting [3]) was above 3 µM; in the experiment with Aβtotal [2] (setting [4]), above 1 µM; with Aβ42 (Homo sapiens), 0.035 µM; in the experiment on Aβtotal [1] (Homo sapiens), 7.76 µM.

Consider `COc1cc(Nc2cccc3c2nc(-c2ccc(F)cc2)n3C)ccc1-c1cnc(C)o1` [Compound 16], for which the IC50 with Aβtotal [2] (setting [3]) was above 3 µM; with Aβtotal [2] (setting [4]) it was above 3 µM; in the experiment with Aβ42 (Homo sapiens), 0.016 µM; with Aβtotal [1] (Homo sapiens), 8.71 µM.

Take `Cc1ncc(-c2ccc(Nc3nccc4c3nc(-c3ccc(F)cc3)n4C)cc2F)o1` [Compound 17]: the IC50 with Aβtotal [2] (setting [3]) is above 3 µM; in the experiment on Aβ42 (Homo sapiens), 0.166 µM; in the experiment on Aβtotal [1] (Homo sapiens), above 10 µM.

Take `Cc1ncc(-c2ccc(Nc3cccc4c3nc(-c3ccc(F)cc3)n4C(C)C)cn2)o1` [Compound 18]: the IC50 is above 3 µM in the experiment with Aβtotal [2] (setting [3]), 0.02 µM in the experiment with Aβ42 (Homo sapiens) and 6.46 µM in the experiment on Aβtotal [1] (Homo sapiens).

With `COc1cccc(-c2nc3c(Nc4ccc(-c5cnc(C)o5)nc4)cc(F)cc3n2C)c1` [Compound 105], the concentration for half-maximal inhibition (IC50) in the experiment with Aβtotal [2] (setting [5]) is above 3 µM; with Aβ42 it was 0.014 µM; in the experiment on Aβtotal [1], above 10 µM.

With `COc1cc(Nc2nc(C(F)(F)F)cn3cc(C)nc23)ccc1-c1cnc(C)o1` [Compound 170], the half-inhibitory concentration (IC50) was 7.41 µM in the experiment on Aβ42 and above 10 µM with Aβtotal [1].

On to `COc1cc(Nc2cncc3c2nc(-c2ccc(F)cc2)n3C)ccc1-c1cnc(C)o1` [Compound 186], for which the figures for the IC50 in the experiment with Aβtotal [2] (setting [5]), in the experiment with Aβ42 and with Aβtotal [1] were above 10 µM, 0.041 µM and above 10 µM, respectively.

As to `COc1cc(Nc2cc(C(F)(F)F)nn3cc(C)nc23)ccc1-c1cnc(C)o1` [Compound 195], the IC50 was above 10 µM in the experiment with Aβtotal [2] (setting [5]), 0.282 µM in the experiment with Aβ42 and above 10 µM with Aβtotal [1].
